Results reported in patent US7951595B2, “Methods for screening modulators of SLC17-type anion transport activity” (National University Corporation Okayama University, priority 2007, dated 2011).
Values belong to the molecule of their own block, whether it stands above or below them.

Legend:
human SLC17A9 = molecular target: T1, human SLC17A9 (Homo sapiens, UniProt Q9BYT1, N228S); assay: Nucleotide transport by human SLC17A9 reconstituted proteoliposomes (valinomycin-induced membrane potential, radiolabelled substrate); format: biochemical; settings: for uptake of ADP and GTP into SLC17A9 reconstituted proteoliposomes over time: 100 μM each, FIG. 16; for effect of nucleotides on ATP transport: nucleotide 1 mM, FIG. 15
T1 construct: His6 (from pDEST10 vector); made in house; host or cells: insect cells, baculovirus system (Sf9 named for virus production)
T1 sequence (Q9BYT1 1-430 isoform Q9BYT1-2 N222S): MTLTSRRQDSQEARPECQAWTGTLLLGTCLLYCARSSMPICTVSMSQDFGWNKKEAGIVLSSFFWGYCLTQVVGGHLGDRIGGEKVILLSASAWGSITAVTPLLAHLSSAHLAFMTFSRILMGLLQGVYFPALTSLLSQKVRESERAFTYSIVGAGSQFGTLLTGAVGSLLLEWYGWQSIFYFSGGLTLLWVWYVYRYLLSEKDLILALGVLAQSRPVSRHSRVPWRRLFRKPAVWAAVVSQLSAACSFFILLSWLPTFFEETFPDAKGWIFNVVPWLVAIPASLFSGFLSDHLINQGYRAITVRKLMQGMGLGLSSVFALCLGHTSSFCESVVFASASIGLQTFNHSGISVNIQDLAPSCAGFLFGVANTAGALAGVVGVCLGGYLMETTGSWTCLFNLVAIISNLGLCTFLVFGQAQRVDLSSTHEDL
Method: 10 μg of purified SLC17A9 and 0.5 mg of soybean-derived lipids were mixed and incubated at −80° C. for 5 minutes or more. The mixture was thawed quickly by holding the tube in the hands, and was diluted 60-fold with a buffer solution containing 20 mM MOPS-Tris (pH 7.0), 0.15M sodium acetate, 2 mM magnesium acetate and 0.5 mM DTT. This dilution was centrifuged at 200,000×g at 4° C. for one hour, the supernatant was discarded, and the precipitate was resuspended in a buffer solution containing 20 mM MOPS-Tris (pH 7.0), 0.15M sodium acetate, 2 mM magnesium acetate and 0.5 mM DTT, to obtain SLC17A9 reconstituted proteoliposomes. As a control, liposomes without SLC17A9 were used.
The nucleotide transport activity was measured by the following procedure. The reconstituted proteoliposomes were incubated in a buffer solution containing 20 mM MOPS-Tris (pH 7.0), 0.15M potassium acetate, 2 mM magnesium acetate and 4 mM potassium chloride, at 27° C. for 2 minutes, and valinomycin was added thereto to a final concentration of 2 μM. The mixture was incubated for further 2 minutes. The point of addition of 0.1 mM [α-^32P]ATP (3.7 GBq/mmol) was defined as the initiation of activity measurement. At a predetermined time point, 130 μL of the reaction liquid was recovered and centrifuged through a Sephadex G-50 (fine) spin column at 760×g for 2 minutes. The uptake of ATP was measured by measuring the radioactivity included in the reaction liquid that had passed through the column using a liquid scintillation counter. In the measurement of the transport activity for ADP and GTP, [2,8-^3H]ADP (0.37 GBq/mmol) and [α-^32P]GTP (3.7 GBq/mmol) were used instead of ATP as the substrate.
In an experiment for an inhibitor, a predetermined concentration of an inhibitor was added upon incubation of the proteoliposomes.

mouse SLC17A9 (mSLC17A9) = molecular target: T2, mouse SLC17A9 (mSLC17A9) (Mus musculus, UniProt Q8VCL5); assay: ATP transport by reconstituted mSLC17A9 protein proteoliposomes; format: biochemical; settings: added at 2 mM, uptake for 2 minutes, FIG. 22
T2 construct: His6 (from pDEST10 vector) (N); made in house; host or cells: insect cells, baculovirus system (Sf9 named for virus production)
T2 sequence (Q8VCL5 1-447): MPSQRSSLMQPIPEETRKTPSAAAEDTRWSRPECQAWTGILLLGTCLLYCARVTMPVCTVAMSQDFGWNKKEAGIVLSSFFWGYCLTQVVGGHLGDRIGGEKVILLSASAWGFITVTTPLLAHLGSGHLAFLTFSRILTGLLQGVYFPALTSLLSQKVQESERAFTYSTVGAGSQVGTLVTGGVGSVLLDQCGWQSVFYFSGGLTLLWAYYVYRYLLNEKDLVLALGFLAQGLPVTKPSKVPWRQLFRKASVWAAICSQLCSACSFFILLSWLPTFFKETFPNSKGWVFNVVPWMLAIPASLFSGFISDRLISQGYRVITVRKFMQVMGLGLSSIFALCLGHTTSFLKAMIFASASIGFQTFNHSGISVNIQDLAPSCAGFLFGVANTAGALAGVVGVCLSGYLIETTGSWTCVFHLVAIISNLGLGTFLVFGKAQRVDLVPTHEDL
Method: 20 μg of the purified mSLC17A9 protein and 0.5 mg of soybean-derived lipids were mixed, and the mixture was incubated at −80° C. for 5 minutes or longer. This mixture was thawed quickly by holding the tube in the hands, and was diluted 30-fold with a buffer solution containing 20 mM MOPS-Tris (pH 7.0), 0.15M sodium acetate, 2 mM magnesium acetate and 0.5 mM DTT. This dilution was centrifuged at 200,000×g at 4° C. for one hour, the supernatant was discarded, and the precipitate was resuspended in a buffer solution containing 20 mM MOPS-Tris (pH 7.0), 0.15M sodium acetate, 2 mM magnesium acetate and 0.5 mM DTT, to achieve reconstitution. […] The mixture was further incubated for 2 minutes. […] Furthermore, in an inhibitor test, an inhibitor at a predetermined concentration was added in the case of incubating the proteoliposomes.

SLC17A9 mRNA = assay: Knockdown of SLC17A9 by RNAi, SLC17A9 mRNA by real-time PCR; format: cell-based; settings: 25 nM rat SLC17A9 siRNA, cultured 3 days, versus control siRNA, FIG. 19(A)
Method: (§1) Knockdown of SLC17A9 by RNAi was carried out as follows. A sequence for RNAi designed by Qiagen HP OnGuard siRNA Design was used. The nucleic acid sequence of the RNAi used was […] (SEQ ID NO: 15). This sequence and HiPerFect transfection reagent (Qiagen) were used for transfection of 25 nM AllStars negative control siRNA or 25 nM rat SLC17A9 siRNA, and the resultant was cultured for 3 days, to thereby perform knockdown of SLC17A9. […] The amounts of SCL17A9 mRNA in the knocked-down cells (RNAi) and control cells (control) were measured by real-time PCR, and as shown in FIG. 19(A), the amount of SLC17A9 mRNA was decreased by RNAi.

PC12 cells = assay: KCl-dependent ATP release after SLC17A9 knockdown; format: cell-based, rat; settings: 25 nM siRNA, 3 days, KCl stimulus 30 minutes, FIG. 19(B)
Method: as §1

[1] = substrate: Nc1ncnc2c1ncn2[C@@H]1O[C@H](COP(=O)(O)OP(=O)(O)OP(=O)(O)O)[C@@H](O)[C@H]1O; assay: cells, lysate or membranes named; settings: other: human SLC17A9 proteoliposomes, ATP uptake at various concentrations; pH 7.0; 27.0 °C
[2] = substrate: Nc1ncnc2c1ncn2[C@@H]1O[C@H](COP(=O)(O)OP(=O)(O)OP(=O)(O)O)[C@@H](O)[C@H]1O; assay: purified protein, by the assay type; settings: other: reconstituted mSLC17A9, membrane potential-dependent transport, calculated using KaleidaGraph; pH 7.0; 27.0 °C

- uptake of ADP and GTP into SLC17A9 reconstituted proteoliposomes over time (human SLC17A9): actually taken up
- effect of nucleotides on ATP transport (human SLC17A9): recognized as transport substrates
- inhibition of radioactive ATP uptake (mouse SLC17A9 (mSLC17A9)): compete with ATP
Molecule: Nc1ncnc2c1ncn2[C@@H]1O[C@H](COP(=O)(O)OP(=O)(O)O)[C@@H](O)[C@H]1O [ADP, adenosine diphosphate]

- uptake of ADP and GTP into SLC17A9 reconstituted proteoliposomes over time (human SLC17A9): actually taken up
- effect of nucleotides on ATP transport (human SLC17A9): recognized as transport substrates
- inhibition of radioactive ATP uptake (mouse SLC17A9 (mSLC17A9)): compete with ATP
Molecule: Nc1nc2c(ncn2[C@@H]2O[C@H](COP(=O)(O)OP(=O)(O)OP(=O)(O)O)[C@@H](O)[C@H]2O)c(=O)[nH]1 [GTP]

Molecule: SLC17A9 RNAi: RNAi of sequence UAUUCGAGAGAAUGUCACG (SEQ ID NO: 15) for knockdown of SLC17A9 (listed as RNA, chemistry not given here)
- amount of SLC17A9 mRNA (SLC17A9 mRNA): decreased
- KCl-dependent ATP release (PC12 cells): suppressed

B1: human SLC17A9 (Homo sapiens; N228S) (protein)
chain: T1 sequence (Q9BYT1 1-430 isoform Q9BYT1-2 N222S)
- Km [1]: 800 µM

B2: mouse SLC17A9 (mSLC17A9) (Mus musculus) (protein)
chain: T2 sequence (Q8VCL5 1-447)
- Km [2]: 230 µM
- Vmax [2]: 23.8 nmol/min/mg of protein
